# Key:
# Recombinant PHD2 = target: T1, Recombinant PHD2 (Homo sapiens, UniProt Q9GZT9); experiment: In vitro PHD2 enzymatic assay (HIF peptide hydroxylation, HPLC); format: biochemical
# T1 construct: purchased ActiveMotif, Japan 81065
# Procedure: To identify whether TGF-β1 directly affects PHD2 enzymatic activity, we performed an in vitro PHD2 assay using synthetic HIF-1α peptide as a substrate (Fig. 2h). […] To further investigate whether Fe^2+ oxidation impairs PHD2 activity, we introduced H2O2 into the reaction to promote Fe^2+ oxidation.
# A reaction mixture (30 µL total volume) containing 300 µM HIF peptide, 1 µM recombinant PHD2, 20 mM Tris-HCl (pH 7.5), 1 mM DTT, 300 µM ascorbic acid, 5 mM KCl, 1.5 mM MgCl2, 50 µM Fe(SO4)·6H2O, and 300 µM α-ketoglutarate was incubated at 30 °C for 2 hr. The reaction was terminated by adding an equal volume (30 µL) of DMSO. Product analysis was carried out on Waters 2998 HPLC system equipped with a photodiode array detector and an XBridge™ BEH C18 column (4.6 × 250 mm, 5 µm), detecting at 280 nm. A hydroxylated HIF peptide served as a reference standard.
# HIF-1α–EGFP in A549 = experiment: pg-HIF-1α–EGFP fluorescence in transfected A549; format: cell-based, human; conditions: A549, co-treatment with TGF-β1
# Procedure: pg-HIF-1α–EGFP was introduced via jetOPTIMUS®; GFP fluorescence was quantified 48 h post-transfection.
# Transient transfection of A549 cells with pg-HIF-1α–EGFP was performed using jetOPTIMUS® according to the manufacturer’s protocol. Following 48 hr of transfection, the medium was replaced, and cells were treated with TGF-β1 at the specified concentration and duration before further analysis. Cell imaging was performed using an EVOS™ M7000 at 10×, 20×, or 40× magnification. GFP fluorescence intensity was measured using ImageJ. The mean fluorescence within the regions of interest (ROIs) was calculated after background subtraction, and values were normalized to the control condition
# A549 [1] = experiment: Western blot of HIF-1α, fibrosis and EMT markers in A549; format: cell-based, human; conditions: for HIF-1α and COL4A6 levels (Western blot): A549, TGF-β1 co-treatment
# A549 [2] = experiment: Scratch migration assay; format: cell-based, human; conditions: CoCl2 or FG-4592 treatment
# [3] = test system: BLM-induced pulmonary fibrosis; experiment: RT-qPCR of lung tissue in BLM-treated mice; format: in vivo, ICR mice; conditions: BLM 30 mg/kg; ACF-2 10 mg/kg i.p. every 2 days or NIDB 60 mg/kg/day
# Procedure: Total RNA (AccuPrep®) was reverse-transcribed and amplified with SYBR Green chemistry on a StepOnePlusTM system; relative expression was calculated by ΔΔCt. Male ICR mice received BLM (30 mg/kg, intratracheal). […] Total RNA was extracted from both cultured cells and mouse lung tissue using the AccuPrep® Universal RNA Extraction Kit. […] RT-qPCR was performed using iTaqTM Universal SYBR® Green Supermix on a StepOnePlusTM Real-Time PCR System. […] All animal studies were approved by the Institutional Animal Care and Use Committee of Jeju National University (Approval ID: 2024-0058) and conducted in compliance with institutional guidelines. Male ICR mice (6 weeks old, average body weight 27 g) were purchased from […] (South Korea) and housed under controlled temperature (22 ± 2 °C) and humidity (0.0 ± 15.0 %) on a 12 hr light-dark cycle with free access to food and water.
# [4] = test system: BLM-induced pulmonary fibrosis; experiment: BLM-induced pulmonary fibrosis, Ashcroft scoring of lung sections; format: in vivo, ICR mice; conditions: BLM 30 mg/kg intratracheal; ACF-2 10 mg/kg i.p. every 2 days or NIDB 60 mg/kg/day in drinking water, 2 weeks; BLM-only 6.2
# Procedure: Male ICR mice received BLM (30 mg/kg, intratracheal). […] Fixed left lung lobes were paraffin-embedded, sectioned (4 μm), and stained with H&E or MT. A blinded pathologist graded pulmonary fibrosis on the 1-8 Ashcroft scale; representative images illustrate typical lesions. Colon samples were processed by the swiss-roll method, stained with H&E, and scored for inflammation and erosion, which were combined into a composite histological score. All animal studies were approved by the Institutional Animal Care and Use Committee of Jeju National University (Approval ID: 2024-0058) and conducted in compliance with institutional guidelines. Male ICR mice (6 weeks old, average body weight 27 g) were purchased from […] (South Korea) and housed under controlled temperature (22 ± 2 °C) and humidity (0.0 ± 15.0 %) on a 12 hr light-dark cycle with free access to food and water. […] Lung tissue: Left lung lobes were fixed in 4% paraformaldehyde for 24 h, dehydrated, and embedded in paraffin. Sections of 4 μm thickness were prepared, deparaffinized with xylene, and rehydrated in a graded ethanol series. H&E staining was performed using hematoxylin and eosin solutions, respectively. The severity of fibrosis was graded according to the Ashcroft scale (1-8), as evaluated by a pathologist blindly. Representative H&E images were chosen to illustrate the most characteristic pathology. […]
# colon = experiment: Colonic histopathology in the BLM mouse study; format: in vivo, ICR mice; conditions: BLM mice; ACF-2 10 mg/kg i.p. every 2 days or NIDB 60 mg/kg/day
# Description: Fixed left lung lobes were paraffin-embedded, sectioned (4 μm), and stained with H&E or MT. A blinded pathologist graded pulmonary fibrosis on the 1-8 Ashcroft scale; representative images illustrate typical lesions. Colon samples were processed by the swiss-roll method, stained with H&E, and scored for inflammation and erosion, which were combined into a composite histological score. All animal studies were approved by the Institutional Animal Care and Use Committee of Jeju National University (Approval ID: 2024-0058) and conducted in compliance with institutional guidelines. Male ICR mice (6 weeks old, average body weight 27 g) were purchased from […] (South Korea) and housed under controlled temperature (22 ± 2 °C) and humidity (0.0 ± 15.0 %) on a 12 hr light-dark cycle with free access to food and water. […] Colon tissue: Colons were harvested, flushed with 1xPBS, and prepared using the swiss-roll method before embedding in paraffin. Sections of 4 μm thickness were subjected to H&E staining as described above. Colonic injury was evaluated by two independent parameters: (i) inflammation score (0-3) and (ii) erosion score (0-3). A composite histological score was then calculated as the sum of inflammation and erosion scores for each sample.
# T1 sequence (Q9GZT9 whole entry): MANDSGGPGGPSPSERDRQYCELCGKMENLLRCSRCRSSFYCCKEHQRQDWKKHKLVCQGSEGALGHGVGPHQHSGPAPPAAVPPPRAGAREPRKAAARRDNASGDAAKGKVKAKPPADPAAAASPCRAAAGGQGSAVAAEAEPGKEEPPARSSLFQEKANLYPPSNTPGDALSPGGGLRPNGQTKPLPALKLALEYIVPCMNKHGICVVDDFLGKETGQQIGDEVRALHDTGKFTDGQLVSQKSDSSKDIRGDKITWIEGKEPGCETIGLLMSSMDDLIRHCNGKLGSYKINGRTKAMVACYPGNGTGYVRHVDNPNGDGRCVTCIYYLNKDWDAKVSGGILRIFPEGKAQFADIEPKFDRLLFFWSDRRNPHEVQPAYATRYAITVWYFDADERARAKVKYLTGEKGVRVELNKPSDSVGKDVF
structure (smiles),measurement,setting,value
O.Oc1cc(O)c2c(c1)O[C@H](c1ccc(O)c(O)c1)[C@@H](O)C2 [Catechin],effect on PHD2 activity,"Recombinant PHD2; ambient air, comparable concentrations to ACF-2",failed to preserve or enhance PHD2 activity
"c1ccc2c(c1)[I+]c1ccccc1-2 [DPI, diphenyleneiodonium chloride, reference compound]",TGF-β1–induced HIF-1α–EGFP GFP fluorescence intensity,HIF-1α–EGFP in A549,substantial drop in GFP intensity
same,HIF-1α and COL4A6 levels (Western blot),A549 [1],markedly reduced HIF-1α and COL4A6 levels
Cc1nc(C(=O)NCC(=O)O)c(O)c2ccc(Oc3ccccc3)cc12 [FG-4592],cell migration (wound healing),A549 [2],significant increase in cell migration
same,"fibrosis-associated proteins (fibronectin, α-SMA, COL3A1, COL4A6)","A549 [1]; A549, ambient air, CoCl2 200 μM, FG-4592 50 μM",increased expression of fibrosis-associated proteins
OO [H2O2],effect on PHD2 activity (H2O2 added to the reaction),Recombinant PHD2; H2O2 introduced to promote Fe2+ oxidation,inhibited PHD2 activity in a dose-dependent manner
"COC(=O)c1ccc2c(c1)NC(=O)/C2=C(\Nc1ccc(N(C)C(=O)CN2CCN(C)CC2)cc1)c1ccccc1 [NIDB, nintedanib, reference compound]",TGF-β1 (Tgfb1) expression in lung (RT-qPCR),[3],markedly reduced
same,Average Ashcroft score,[4],3.8
same,composite histological score of colon (inflammation + erosion),colon,significantly increased the composite histological score
CN(C)c1cccc(-c2c3c(=O)n(-c4ccccc4Cl)[nH]c3cc(=O)n2C)c1 [Setanaxib],HIF-1α and COL4A6 levels (Western blot),A549 [1],markedly reduced HIF-1α and COL4A6 levels
COc1cc(C(C)=O)ccc1O [apocynin],HIF-1α and COL4A6 levels (Western blot),A549 [1],markedly reduced HIF-1α and COL4A6 levels
